Measured values taken from ChEMBL document CHEMBL2346629, “Discovery and characterization of novel allosteric FAK inhibitors” (Eur J Med Chem, 2013).

Target: Protein kinase C beta type (Homo sapiens) (UniProt P05771)
Experiment: Inhibition of PKCb1 (unknown origin) using [gamma-33P]ATP assessed as residual activity at 3 uM

Sequence of Protein kinase C beta type (Homo sapiens) (P05771 2-671 limits assumed): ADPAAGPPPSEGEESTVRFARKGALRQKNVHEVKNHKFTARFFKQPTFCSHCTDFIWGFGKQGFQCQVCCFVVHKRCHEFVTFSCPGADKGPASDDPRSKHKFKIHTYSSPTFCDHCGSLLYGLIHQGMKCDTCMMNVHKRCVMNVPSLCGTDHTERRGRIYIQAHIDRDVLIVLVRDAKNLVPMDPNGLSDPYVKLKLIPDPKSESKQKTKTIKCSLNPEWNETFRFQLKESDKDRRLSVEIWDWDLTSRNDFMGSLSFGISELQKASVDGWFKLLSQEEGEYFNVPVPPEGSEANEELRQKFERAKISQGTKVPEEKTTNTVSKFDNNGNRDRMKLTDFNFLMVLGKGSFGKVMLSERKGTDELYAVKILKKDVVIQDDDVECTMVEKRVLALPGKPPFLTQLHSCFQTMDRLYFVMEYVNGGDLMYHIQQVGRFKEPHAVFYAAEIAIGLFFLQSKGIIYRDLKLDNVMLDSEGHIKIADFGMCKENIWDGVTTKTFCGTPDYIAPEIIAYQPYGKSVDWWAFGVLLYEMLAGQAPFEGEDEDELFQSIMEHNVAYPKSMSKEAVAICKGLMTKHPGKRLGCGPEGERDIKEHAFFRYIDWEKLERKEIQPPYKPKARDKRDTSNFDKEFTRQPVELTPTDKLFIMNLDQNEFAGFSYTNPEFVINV

Activity: 101%
SMILES: CCc1ccc(-c2ccc3c(c2)-c2[nH]ncc2S(=O)(=O)N3C)cc1
